Here are results for 32 compounds from publication PMC5430599, “Antiplasmodial dihetarylthioethers target the coenzyme A synthesis pathway in Plasmodium falciparum erythrocytic stages” (Malaria Journal, 2017).

The test system of assay [1] is asexual erythrocytic stages of transgenic NF54-luc P. falciparum. As to the kind of experiment: Luciferase-based viability screening for anti-malarial activity. The assay is classed as cell-based, Plasmodium falciparum. The settings on record: for inhibition at 3 µM: read-out: % inhibition, PfNF54-Luc at 3 µM, 3 µM, 48 h; for inhibition at 3 µM / % inhibition, PfNF54-Luc at 3 µM: >50% inhibition of viability rated active; for % inhibition, PfNF54-Luc at 3 µM: 48 h. Here is the method: Asexual erythrocytic stages of transgenic NF54-luc P. falciparum were used for the luciferase-based viability assay. These parasites constitutively express high levels of luciferase. The parasites were cultured as described previously. Parasite culture with parasitaemia of 0.5–1% was dispensed in triplicate into white 96-well flat-bottom plates (each well contains 250 µL) (NUNC, Roskilde, […], 90% N2, 5% CO2, and 5% O2). 0.01% DMSO was included in the untreated infected RBC cultures as negative control, since the compounds stock initially was diluted in DMSO and each treatment well also contained 0.01% DMSO. Subsequently, 100 µL RPMI1640 media was removed from each well and a 100 µL volume of the Bright-Glo® substrate solution added to each well. The resultant cleavage product of the reaction, light, was measured using a FLUOROSKAN FL luminometer (Thermo), to ascertain viable parasites. Untreated cultures were used as negative controls and to calculate the inhibition rate (0% inhibition of parasite growth). Blasticidin (Sigma-Aldrich, St. Louis, MO, USA), used for selection of transfected parasites, was included as a positive control on each plate and gave >90% inhibition of parasite growth at concentration 2 µg/mL. Compounds with >50% inhibition of viability were rated as actives. Experiments were performed in triplicate and were repeated at least twice.

In assay [2] the test system is Plasmodium falciparum parasites (3D7 strain). In words: Coenzyme A rescue assay (imaging-based growth inhibition, with or without 0.8 mM CoA). The assay is classed as cell-based. Conditions: for IC50: Plasmodium falciparum, 3D7, 72 h; for rescue by coenzyme A supplementation (in words): 0.8 mM CoA; for IC50-ratio (CoA/solvent): IC50 with 0.8 mM CoA / IC50 solvent, threshold 5× significant; for IC50 shift with CoA supplementation: IC50 CoA / IC50 solvent. As to the method:
Plasmodium falciparum parasites (3D7 strain) were grown in RPMI 1640 supplemented with 25 mM HEPES, 5 mg/mL Albumax II, and 0.37 mM hypoxanthine. Parasites were subjected to two rounds of sorbitol synchronization before undergoing compound treatment. Ring stage parasites were exposed to the experimental compounds alone, or in combination with 0.8 mM coenzyme A (CoA) in 384-wells imaging microplates (CellCarrier, PerkinElmer), as previously described. […] Puromycin 5 µM and untreated solvent were used as in-plate positive and negative controls, respectively. Samples were dissolved in DMSO to a final assay DMSO concentration of 0.4%. […] All sample and control wells contained the same final amounts of solvents. Plates were incubated for 72 h at 90% N2, 5% CO2, 5% O2, then parasites were stained with 2-(4-amidinophenyl)-1H-indole-6-carboxamidine (DAPI), and imaged using an Opera QEHS micro-plate confocal imaging system (PerkinElmer) with 405 nm excitation and 450/50 emission filter, using a 20× water immersion objective. Images were analysed as previously described, to obtain normalized % inhibition data, which were then used to calculate IC50 values, through a four parameter logistic curve fitting in GraphPad Prism v.6. The experiment was carried out in two independent biological replicates, each consisting of two technical replicates. Dose–response curves are illustrated in the Additional file 4.

Assay [3] concerns human embryonic kidney (HEK-293) cells. In words: Cytotoxicity assay: human HEK-293 cell line (resazurin). Conditions: Homo sapiens, read-out: IC50 [µM], HEK-293. The assay is classed as cell-based. As to the method: Cytotoxicity against human embryonic kidney (HEK-293) cells was assessed as previously described. […] Cells were detached using Accutase treatment, then seeded into black clear-bottom 384-wells fluorescence microplates (Greiner), at a cell density of 44,000 cells/mL in 45 µL/well, using a Benchtop liquid dispenser (Thermo Fisher Multidrop). After seeding, the cells were brought back to the incubator and allowed to settle and reattach overnight. […] Plates were incubated at the standard condition above for 72 h. At the end of the incubation the medium in each well was replaced with 1 mM resazurin, and the plates were read using a multilabel microplate reader (PerkinElmer Envision) at 530 nm excitation and 595 nm emission wavelengths after a further 6 h incubation. Inhibition data was generated using Office Excel 2013 (Microsoft). IC50 values were calculated by fitting a four-parameter nonlinear regression model using Prism v.6.0 (Graphpad Software Inc., La Jolla, CA, USA).
A general note: The colour change of resazurin is a common sign of viable cells or microbes.

Another assay has as its system Plasmodium falciparum. Further details: method as in PMID 27855724. Conditions: addition of pantethine; cited from earlier work.
In another assay the test system is Plasmodium berghei. Further details: method as in PMID 24900512. The settings on record: 50 mg/kg subcutaneously over 4 days; cited from earlier work.
Where [4] appears, read: Plasmodium falciparum, NF54, 48 h.
The mark [5] stands for this setting: 0.8 mM CoA (rescue), 72 h, read-out: IC50 [µM], Pf3D7 + 0.8 mM CoA.
[6] abbreviates: no CoA (solvent, non-rescue), 72 h, read-out: IC50 [µM], Pf3D7 + solvent.

Like-named read-outs stand apart in the source and are kept apart here. Some results are limits rather than exact numbers.

For the compound `NCc1nnc(Sc2ncnc3sccc23)o1` [Compound 3s], in assay [1] (setting [4]), the inhibition (in general, the relative decrease from the control value, in per cent) at 3 µM was -2.8 ± 16.6%.

For the compound `CCN(CC)S(=O)(=O)c1ccc(-c2nnc(Sc3ncnc4sccc34)o2)cc1` [Compound 3d], in assay [1] (setting [4]), the inhibition at 3 µM was -0.6 ± 5.4%.

On to `CC1CCc2sc(-c3nnc(Sc4ncnc5sccc45)o3)cc2C1` (stereo not shown) [Compound 3h], for which, in assay [1] (setting [4]), the inhibition at 3 µM is -103 ± 4.4%.

As to `c1coc(-c2nc(Sc3ncnc4sccc34)n[nH]2)c1` [Compound 8a], the “% inhibition, PfNF54-Luc at 3 µM” value in assay [1] was found to be 33.2 ± 6.8%. Moreover, the inhibition at 3 µM in assay [1] (setting [4]) was 33%. In addition, the IC50 – broadly, the concentration at which inhibition is half-maximal – was 16.1 ± 2.2 µM in assay [2] (setting [5]); 10.5 ± 1.1 µM in assay [2] (setting [6]); greater than 40 µM in assay [3] (HEK293, cytotoxicity, 72 h).

Consider `CCN(CC)CCCC(C)Nc1ccnc2cc(Cl)ccc12` (stereo not shown) [Chloroqu, Chloroquine, reference compound], for which the “rescue by coenzyme A supplementation (in words)” value (“rescue … (in words)” for short) in assay [2] is reported as “not rescued”. Moreover, the “IC50-ratio (CoA/solvent)” value in assay [2] is on record as 1.39. For the same compound, the IC50 in assay [2] (read-out: IC50 [µM], Pf3D7 + 0.8 mM CoA) was 0.0271 ± 0.0094 µM; in assay [2] (read-out: IC50 [µM], Pf3D7 + solvent) it was 0.0195 ± 0.0034 µM; in assay [3] (HEK293, 72 h), greater than 40 µM.

As to `c1cncc(-c2nnc(Sc3ncnc4sccc34)o2)c1` [Compound 3i], the inhibition at 3 µM in assay [1] (setting [4]) is -5.5 ± 3.8%.

For the compound `Fc1ccc(-c2nnc(Sc3ncnc4sccc34)o2)cc1` [Compound 3m], the inhibition at 3 µM in assay [1] (setting [4]) was -8.3 ± 4.1%.

In the case of `N#Cc1nccnc1Sc1nnc(-c2ccco2)o1` [Compound 6c], in assay [1] (setting [4]), the inhibition at 3 µM came to 0.98 ± 1.52%.

With `O=S(=O)(c1ccc(-c2nnc(Sc3ncnc4sccc34)o2)cc1)N1CCCCC1` [Compound 3e], in assay [1] (setting [4]), the inhibition at 3 µM was -7.3 ± 6.9%.

As for `O=S(=O)(c1ccc(-c2nnc(Sc3ncnc4sccc34)o2)cc1)N1CCOCC1` [Compound 3l], in assay [1] (setting [4]), the inhibition at 3 µM is 24.3 ± 3.2%.

Take `CC(C)(CO)C(O)C(=O)NCCCO` (stereo not shown) [Pantoth, panthenol, reference compound]: the “rescue … (in words)” value in assay [2] is “rescued”. Moreover, in assay [2] (setting [6]), the IC50 is 752 ± 82 µM.

For the compound `Cc1ccc2nc(Sc3ncnc4sccc34)[nH]c2c1` [Compound 8h], in assay [1], the “% inhibition, PfNF54-Luc at 3 µM” value was “inactive”. In addition, the inhibition at 3 µM in assay [1] (setting [4]) was -1.9 ± 5.3%.

For `COc1ccc(-c2nnc(Sc3ncnc4sccc34)o2)cc1` [Compound 3c], the inhibition at 30 µM in assay [1] (Plasmodium falciparum, NF54, 48 h, read-out: % inhibition, PfNF54-Luc at 30 µM, 30 µM, 48 h) was less than 50%.

`c1coc(-c2nnc(Sc3ncnc4[nH]cnc34)o2)c1` [Compound 6b]: in assay [1] (setting [4]), the inhibition at 3 µM was found to be 1.79 ± 2.53%.

With `Brc1ccccc1-c1nnc(Sc2ncnc3sccc23)o1` [Compound 3g], in assay [1] (setting [4]), the inhibition at 3 µM was -13.1 ± 9.1%.

On to `Clc1ccccc1-c1nnc(Sc2ncnc3sccc23)o1` [Compound 3f], for which the inhibition at 3 µM in assay [1] (setting [4]) worked out at 1.5 ± 4.3%.

Consider `C[C@@H]1CC[C@H]2[C@@H](C)C(=O)O[C@@H]3O[C@@]4(C)CC[C@@H]1[C@]32OO4` [Artemis, artemisinin, reference compound], for which, in assay [2], the “rescue … (in words)” value was “not rescued”. For the same compound, the IC50 in assay [2] (setting [5]) was 0.0049 ± 0.0011 µM; in assay [2] (setting [6]), 0.00337 ± 0.00065 µM.

On to `CC(C)(C)OC(=O)NCc1nnc(Sc2ncnc3sccc23)o1` [Compound 3o], for which, in assay [1] (setting [4]), the inhibition at 3 µM turned out to be 2.28 ± 3.31%.

For the compound `Cc1csc(Sc2ncnc3sccc23)n1` [Amb180780, reference compound], in assay [2], the “rescue … (in words)” value is recorded as “rescued”, the “IC50 shift with CoA supplementation” value was greater than 13 fold and the “IC50-ratio (CoA/solvent)” value was 40.8. Further, the IC50 in assay [2] (setting [5]) is 1.51 ± 0.19 µM. The half-maximal inhibitory concentration (IC50) in assay [2] (setting [6]) turned out to be 0.037 ± 0.0017 µM. The IC50 in assay [3] (HEK293, cytotoxicity, 72 h) is greater than 40 µM. The “rescue of activity by pantethine, dephospho CoA and CoA” value in the assay with Plasmodium falciparum is “more than 75%”.

For the compound `CC(C)(C)c1nnc(Sc2ncnc3sccc23)o1` [Compound 3p], the inhibition at 3 µM in assay [1] (setting [4]) is -14.6 ± 12.9%.

Consider `Cc1ccc(-c2nnc(Sc3ncnc4sccc34)o2)cc1` [Compound 3j], for which, in assay [1] (setting [4]), the inhibition at 3 µM was -11 ± 6.7%.

Consider `CC(C)(C)OC(=O)N1CCC(c2nnc(Sc3ncnc4sccc34)o2)CC1` [Compound 3n], for which the inhibition at 3 µM in assay [1] (setting [4]) is -0.82 ± 3.11%.

With `c1nc(Sc2nnc(C3CCNCC3)o2)c2ccsc2n1` [Compound 3r], the inhibition at 3 µM in assay [1] (setting [4]) is 7.7 ± 1.8%.

For `Cn1cnnc1Sc1ncnc2sccc12` [Compound 8b], in assay [1], the “% inhibition, PfNF54-Luc at 3 µM” value is “inactive”. The inhibition at 3 µM in assay [1] (setting [4]) was 4.7 ± 2.6%. For the same compound, the “rescue … (in words)” value in assay [2] is reported as “significantly rescued”. Further, in assay [2], the “IC50 shift with CoA supplementation” value was “sevenfold”. The “IC50-ratio (CoA/solvent)” value in assay [2] came out at 7.39. Besides, the IC50 in assay [2] (setting [5]) is roughly 40 µM; in assay [2] (setting [6]), 6.4 ± 4.3 µM; in assay [3] (HEK293, cytotoxicity, 72 h), greater than 40 µM.

With `c1coc(-c2nnc(Sc3ncnc4[nH]ccc34)o2)c1` [Compound 6a], the inhibition at 3 µM in assay [1] (setting [4]) was -24.8 ± 13.6%.

In the case of `CN(CC[C@H](N)CC(=O)N[C@H]1C=C[C@H](n2ccc(N)nc2=O)O[C@@H]1C(=O)O)C(=N)N` [BS, Blasticidin, reference compound], the “inhibition of parasite growth (positive control)” value in assay [1] (2 µg/mL) is given as greater than 90%. Also, the “% inhibition, PfNF54-Luc at 3 µM” value in assay [1] worked out at 99.3 ± 0.7%.

Take `CCc1ccc(-c2nnc(Sc3ncnc4sccc34)o2)cc1` [Compound 3k]: the inhibition at 3 µM in assay [1] (setting [4]) was -7 ± 1.8%.

Regarding `COc1ccc(C[C@H](N)C(=O)N[C@H]2[C@@H](O)[C@H](n3cnc4c(N(C)C)ncnc43)O[C@@H]2CO)cc1` [Puromyc, puromycin, reference compound], in assay [2], the “rescue … (in words)” value is given as “not rescued”. In addition, the “IC50-ratio (CoA/solvent)” value in assay [2] is on record as 2.78. Besides, the IC50 in assay [2] (setting [5]) was 0.0939 ± 0.0016 µM; in assay [3] (HEK293, cytotoxicity, 72 h), 0.36 µM.

In the case of `COc1ccc2[nH]c(Sc3ncnc4sccc34)nc2c1` [Compound 8j], the “% inhibition, PfNF54-Luc at 3 µM” value in assay [1] was “inactive”. Besides, in assay [1] (setting [4]), the inhibition at 3 µM is -36.3 ± 10.6%.

`OCc1nnc(Sc2ncnc3sccc23)o1` [Compound 3q]: the inhibition at 3 µM in assay [1] (setting [4]) is -12.3 ± 2.2%.

Regarding `Clc1ccc2[nH]c(Sc3ncnc4sccc34)nc2c1` [Compound 8i], in assay [1], the “% inhibition, PfNF54-Luc at 3 µM” value is “inactive”. Besides, the inhibition at 3 µM in assay [1] (setting [4]) was -18.4 ± 10.6%.

On to `c1ccn2c(Sc3ncnc4sccc34)nnc2c1` [compound 33], for which, in the assay with Plasmodium berghei, the drop in parasitaemia is reported as 34% and the “life-span of infected animals” value is “failed to prolong the life-span”.
